Where a name gives a salt, the structure may show the parent alone. Read-outs that look alike come from different tables or passages of the source.

Broadly, the Ki is the equilibrium dissociation constant of an inhibitor or competing ligand from its target. In general, EC50 refers to the midpoint of the concentration-response curve.

Experiment [1] has as its target T1, Human recombinant LSD1 protein (Homo sapiens, UniProt O60341).
T1 construct: purchased BPS Bioscience Inc
Nature of the experiment: LSD1 inhibition, Amplex Red peroxide/peroxidase-coupled demethylase assay. To be noted: for Ki: Ki range class. The experiment is classed as biochemical.
Text: Human recombinant LSD1 protein was purchased from BPS Bioscience Inc. In order to monitor LSD1 enzymatic activity and/or its inhibition rate by our inhibitor(s) of interest, di-methylated H3-K4 peptide (Millipore) was chosen as a substrate. The demethylase activity was estimated, under aerobic conditions, by measuring the release of H2O2 produced during the catalytic process, using the Amplex® Red peroxide/peroxidase-coupled assay kit (Invitrogen).
Within the experiment, each concentration of inhibitor was tested in triplicate. […] The enzymatic reactions were set up in a 50 mM sodium phosphate, pH 7.4 buffer. At the end of the incubation, Amplex® Red reagent and horseradish peroxidase (HPR) solution were added to the reaction according to the recommendations provided by the supplier (Invitrogen), and left to incubate for 30 extra minutes at room temperature in the dark. A 1 μM H2O2 solution was used as a control of the kit efficiency. The conversion of the Amplex® Red reagent to resorufin due to the presence of H2O2 in the assay, was monitored by fluorescence (excitation at 540 nm, emission at 590 nm) using a microplate reader (Infinite 200, Tecan). Arbitrary units were used to measure level of H2O2 produced in the absence and/or in the presence of inhibitor.
The maximum demethylase activity of LSD1 was obtained in the absence of inhibitor and corrected for background fluorescence in the absence of LSD1. The Ki of each inhibitor was estimated at half of the maximum activity.

Experiment [2] concerns the target T2, Human recombinant monoamine oxidase MAO-A (Homo sapiens, UniProt P21397).
T2 construct: purchased Sigma Aldrich
T2 sequence (P21397 1-527): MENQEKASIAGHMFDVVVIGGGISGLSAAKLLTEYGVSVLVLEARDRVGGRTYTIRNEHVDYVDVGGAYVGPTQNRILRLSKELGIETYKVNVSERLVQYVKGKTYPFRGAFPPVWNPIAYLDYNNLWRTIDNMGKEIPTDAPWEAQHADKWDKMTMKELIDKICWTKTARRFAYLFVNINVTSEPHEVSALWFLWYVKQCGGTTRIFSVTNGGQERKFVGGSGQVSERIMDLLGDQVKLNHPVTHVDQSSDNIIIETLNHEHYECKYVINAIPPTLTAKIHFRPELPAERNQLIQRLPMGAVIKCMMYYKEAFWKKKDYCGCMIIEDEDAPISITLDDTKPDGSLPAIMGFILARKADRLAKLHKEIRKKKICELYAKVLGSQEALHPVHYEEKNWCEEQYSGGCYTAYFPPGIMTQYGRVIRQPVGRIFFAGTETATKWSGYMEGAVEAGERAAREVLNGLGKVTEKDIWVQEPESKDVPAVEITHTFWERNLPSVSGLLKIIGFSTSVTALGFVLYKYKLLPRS
Nature of the experiment: MAO-A kynuramine fluorescence inhibition assay. The experiment is classed as biochemical.
Text: (§1) Human recombinant monoamine oxidase proteins MAO-A and MAO-B were purchased from Sigma Aldrich. […] In order to monitor MAO enzymatic activities and/or their inhibition rate by inhibitor(s) of interest, a fluorescent-based (inhibitor)-screening assay was set up. 3-(2-Aminophenyl)-3-oxopropanamine (kynuramine dihydrobromide, Sigma Aldrich), a non fluorescent compound was chosen as a substrate. Kynuramine is a non-specific substrate for both MAOs activities. While undergoing oxidative deamination by MAO activities, kynuramine is converted into 4-hydroxyquinoline (4-HQ), a resulting fluorescent product.
(§2) The monoamine oxidase activity was estimated by measuring the conversion of kynuramine into 4-hydroxyquinoline. Assays were conducted in 96-well black plates with clear bottom (Corning) in a final volume of 100 μL. The assay buffer was 100 mM HEPES, pH 7.5. Each experiment was performed in triplicate within the same experiment.
(§3) Briefly, a fixed amount of MAO (0.25 μg for MAO-A and 0.5 μg for MAO-B) was incubated on ice for 15 minutes in the reaction buffer, in the absence and/or in the presence of various concentrations of inhibitor (e.g., from 0 to 50 μM, depending on the inhibitor strength).
(§4) After leaving the enzyme(s) interacting with the inhibitor, 60 to 90 μM of kynuramine was added to each reaction for MAO-B and MAO-A assay respectively, and the reaction was left for 1 hour at 37° C. in the dark. The oxidative deamination of the substrate was stopped by adding 50 μL (v/v) of NaOH 2N. The conversion of kynuramine to 4-hydroxyquinoline, was monitored by fluorescence (excitation at 320 nm, emission at 360 nm) using a microplate reader (Infinite 200, Tecan). Arbitrary units were used to measure levels of fluorescence produced in the absence and/or in the presence of inhibitor.
(§5) The Ki of each inhibitor was measure at Vmax/2.

The target in experiment [3] is T3, Human recombinant monoamine oxidase MAO-B (Homo sapiens, UniProt P27338).
T3 construct: purchased Sigma Aldrich
T3 sequence (P27338 1-520): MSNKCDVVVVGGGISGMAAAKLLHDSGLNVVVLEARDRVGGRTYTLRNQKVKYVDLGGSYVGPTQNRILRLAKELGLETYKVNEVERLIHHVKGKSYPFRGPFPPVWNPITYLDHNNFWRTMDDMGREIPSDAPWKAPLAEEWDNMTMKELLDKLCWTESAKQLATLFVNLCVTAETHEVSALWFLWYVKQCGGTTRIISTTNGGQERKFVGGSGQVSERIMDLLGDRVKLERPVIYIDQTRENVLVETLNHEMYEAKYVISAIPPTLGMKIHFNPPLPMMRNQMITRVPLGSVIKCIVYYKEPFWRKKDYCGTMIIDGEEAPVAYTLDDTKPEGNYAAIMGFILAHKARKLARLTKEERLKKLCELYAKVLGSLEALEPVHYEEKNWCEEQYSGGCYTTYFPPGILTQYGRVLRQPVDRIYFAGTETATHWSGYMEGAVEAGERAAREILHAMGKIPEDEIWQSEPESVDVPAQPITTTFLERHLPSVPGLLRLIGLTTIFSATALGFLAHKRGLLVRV
Nature of the experiment: MAO-B kynuramine fluorescence inhibition assay. The class given is biochemical. The settings on record: Ki range class.
Text: as §1, §2, §3, §4, §5

The test system of experiment [4] is human colon cancer cell line HCT116. The experiment in a line: Cancer cell line study, alamarBlue viability assay. The experiment is classed as cell-based. The settings on record: HCT-116, dose required to inhibit cell growth by 50%, 72 hours, read-out: EC50 value for HCT-116 cells. Here is the method: The human colon cancer cell line HCT116 was obtained from the American Type Culture Collection (ATCC; CCL-247). The HCT116 cell line was maintained in DMEM GlutaMAX (Invitrogen) supplemented with 10% fetal calf serum. Cells were grown in a humidified incubator at 37 C in 5% CO2. Cells were plated in 96-well plates at a density of 6000 cells/well in 100 μl medium 24 h before addition of drugs. They were then added in concentrations from 100 μM to 0.45 nM (each concentration in triplicate). To do so, a drugs-dilution plate at twice the screening concentrations was prepared. 72 hours later, alamarBlue (Biosource, Invitrogen) viability assay was performed following manufacturer's protocol. In brief, alamarBlue diluted in media was added to cells to have a 5% solution. Cells were incubated at 37 C, 3 hours and at room temperature, 30 min. Cells with no drug and, cells with no drug and lysed with triton X-100 were used as controls. Fluorescence was monitored at 530 nm excitation and 590 nm emission wavelengths. Results were quantified using Infinite F200 Microplate Reader (Tecan Group, Ltd.). EC50 were calculated as the dose of drugs required to inhibit cell growth by 50%, with Origin 7.0 computer program.
On the technique in general: Resazurin is reduced to fluorescent resorufin, in cell work by metabolically active cells.

The mark [5] stands for this setting: Ki range class, read-out: MAO A (Ki).

For the molecule `FC(F)(F)c1cccc(-c2ccc([C@@H]3C[C@H]3NCCNC3CC3)cc2)c1` (relative stereo) [Example 14, N^1-cyclopropyl-N^2-((trans)-2-(3′-(trifluoromethyl)biphenyl-4-yl)cyclopropyl)ethane-1,2-diamine], the figures for the Ki in experiment [1] and in experiment [2] (setting [5]) were 100 to 1000 nM and 1000 to 40000 nM, respectively. The “MAO B (Ki)” value in experiment [3] was “II, I II”.

As for `c1ccc([C@@H]2C[C@H]2NCCN2CCCCC2)cc1` (relative stereo) [Example 9, N-[(trans)-2-phenylcyclopropyl]-N-(2-piperidin-1-ylethyl)amine], the figures for the inhibitory constant (Ki) in experiment [1], in experiment [2] (setting [5]) and in experiment [3] were 1 to 100 nM, above 40000 nM and 1000 to 40000 nM, respectively.

Regarding `c1ccc([C@@H]2C[C@H]2NCCNC2CC2)cc1` (relative stereo) [Example 2, N-cyclopropyl-N′-[(trans)-2-phenylcyclopropyl]ethane-1,2-diamine dihydrochloride salt], the values for the Ki in experiment [1], in experiment [2] (setting [5]) and in experiment [3] were 100 to 1000 nM, 1000 to 40000 nM and 100 to 1000 nM, respectively.

In the case of `Cl.Cl.c1ccc([C@@H]2C[C@H]2NCCN2CCNCC2)cc1` (relative stereo) [Example 7, N-[(trans)-2-phenylcyclopropyl]-N-(2-piperazin-1-ylethyl)amine dihydrochloride salt], the inhibition constant Ki was 1 to 100 nM in experiment [1]; around 40000 nM in experiment [2] (Ki (IC50), in these assays described herein, read-out: Ki for MAO-A); above 40000 nM in experiment [3]. The “MAO A (Ki)” value in experiment [2] (Ki range class) is given as “I, II”.

In the case of `CCN(CC)CCN[C@@H]1C[C@H]1c1ccccc1` (relative stereo) [Example 8, N1,N1-diethyl-N2-((trans)-2-phenylcyclopropyl)ethane-1,2-diamine dihydrochloride salt], the figures for the Ki in experiment [1], in experiment [2] (setting [5]) and in experiment [3] were 1 to 100 nM, 1000 to 40000 nM and above 40000 nM, respectively.

Turning to `CC(C)CSCCN[C@@H]1C[C@H]1c1ccccc1` (relative stereo) [Example 15, N-(trans)-2-(isobutylthio)-ethyl-2-phenylcyclopropanamine hydrochloride], the inhibition constant (Ki) in experiment [1] lay in the range of 100 to 1000 nM; in experiment [2] (setting [5]), 1000 to 40000 nM; in experiment [3], 1000 to 40000 nM.

For the molecule `Cl.Cl.N[C@@H]1CCN(CCN[C@H]2CC2c2ccccc2)C1` (stereo partly drawn) [Example 4, (3R)-1-(2-{[(trans)-2-phenylcyclopropyl]amino}ethyl)pyrrolidin-3-amine dihydrochloride salt], the Ki in experiment [1] was 1 to 100 nM; in experiment [2] (setting [5]), above 40000 nM; in experiment [3] it was above 40000 nM. Besides, the “Ki value for LSD1 lower than Ki values for MAO-A and MAO-B” value in experiment [1] (selectivity LSD1 versus MAO-A and MAO-B) was “more than 100 fold”.

Turning to `N[C@@H]1CCN(CCN[C@H]2CC2c2ccc(-c3cccc(C(F)(F)F)c3)cc2)C1` (stereo partly drawn) [Example 13, (R)-1-(2-((trans)-2-(3′-(trifluoromethyl)biphenyl-4-yl)cyclopropylamino)ethyl)pyrrolidin-3-amine dihydrochloride], the values for the inhibition constant Ki in experiment [1], in experiment [2] (setting [5]) and in experiment [3] were 1 to 100 nM, 1000 to 40000 nM and 1000 to 40000 nM, respectively.

Take `CN(C)[C@@H]1CCN(CCN[C@H]2CC2c2ccccc2)C1` (stereo partly drawn) [Example 6, (3R)—N,N-dimethyl-1-(2-{[(trans)-2-phenylcyclopropyl]amino}ethyl)pyrrolidin-3-amine]: the inhibition constant Ki in experiment [2] (setting [5]) and in experiment [3] was 1000 to 40000 nM each time.

In the case of `CN1CCN(CCN[C@@H]2C[C@H]2c2ccc(-c3cccc(Cl)c3)cc2)CC1` (relative stereo) [Example 12, (Trans)-2-(3′-chlorobiphenyl-4-yl)-N-(2-(4-methylpiperazin-1-yl)ethyl)cyclopropanamine dihydrochloride], the inhibition constant Ki in experiment [1] lay within 1 to 100 nM; in experiment [3], 1000 to 40000 nM.

With `CN1CCN(CCN[C@@H]2C[C@H]2c2ccc(-c3cccc(C(F)(F)F)c3)cc2)CC1` (relative stereo) [Example 11, (Trans)-N-(2-(4-methylpiperazin-1-yl)ethyl)-2-(3′-(trifluoromethyl)biphenyl-4-yl)cyclopropanamine dihydrochloride], the Ki in experiment [1] is 1 to 100 nM; in experiment [2] (setting [5]) it was 1000 to 40000 nM; in experiment [3], 1000 to 40000 nM.

`CCOCCN[C@@H]1C[C@H]1c1ccccc1` (relative stereo) [Example 16, N-trans-(2-ethoxyethyl)-2-phenylcyclopropanamine hydrochloride]: the Ki in experiment [1] was 100 to 1000 nM; in experiment [2] (setting [5]) it was 1000 to 40000 nM; in experiment [3] it was 1000 to 40000 nM.

For `COCCN[C@@H]1C[C@H]1c1ccccc1` (relative stereo) [Example 17, N-trans-(2-methoxyethyl)-2-phenylcyclopropanamine hydrochloride], the inhibitory constant (Ki) fell in the range of 100 to 1000 nM in experiment [1], 1000 to 40000 nM in experiment [2] (setting [5]) and 1000 to 40000 nM in experiment [3].

Turning to `CN1CCN(CCN[C@@H]2C[C@H]2c2ccccc2)CC1` (relative stereo) [Example 1, N-[2-(4-methylpiperazin-1-yl)ethyl]-N-[(trans)-2-phenylcyclopropyl]amine dihydrochloride salt], the figures for the Ki in experiment [1], in experiment [2] (setting [5]) and in experiment [3] were 1 to 100 nM, above 40000 nM and 1000 to 40000 nM, respectively.

As for `CN(C)CCNCCN[C@@H]1C[C@H]1c1ccccc1` (relative stereo) [Example 3, N,N-dimethyl-N′-(2-{[(trans)-2-phenylcyclopropyl]amino}ethyl)ethane-1,2-diamine], the inhibition constant Ki in experiment [1] is 100 to 1000 nM; in experiment [2] (setting [5]) it was above 40000 nM; in experiment [3], 1000 to 40000 nM.

Regarding `CN1CCN(CCN[C@@H]2C[C@H]2c2ccc(OCc3ccccc3)cc2)CC1` (relative stereo) [Example 10, (trans)-2-(4-(benzyloxy)phenyl)-N-(2-(4-methylpiperazin-1-yl)ethyl)cyclopropanamine dihydrochloride salt], the figures for the inhibition constant Ki in experiment [1], in experiment [2] (setting [5]) and in experiment [3] were 1 to 100 nM, 1000 to 40000 nM and 1000 to 40000 nM, respectively. In experiment [4], the EC50 is around 11000 nM.

On to `CN(C)[C@H]1CCN(CCN[C@H]2CC2c2ccccc2)C1` (stereo partly drawn) [Example 5, (3S)—N,N-dimethyl-1-(2-{[(trans)-2-phenylcyclopropyl]amino}ethyl)pyrrolidin-3-amine dihydrochloride salt], for which the Ki in experiment [2] (setting [5]) and in experiment [3] was above 40000 nM each time.

These data come from patent US8859555B2, “Lysine Specific Demethylase-1 inhibitors and their use” (Oryzon Genomics S.A., priority 2009, dated 2014).
